Data taken from US20230057699A1, “NANOTECHNOLOGY-BASED PESTICIDES AND INTERMEDIATES, COMPOSITIONS AND TREATMENTS USING THE SAME” (priority 2020, published 2023).
Values joined by “and” are separate entries in the source; they are usually repeats but may differ in a detail not shown here. Equal values may be shown once. Read-outs that look alike come from different tables or passages of the source.

Legend:
[1] = test system: Daphnia magna; assay: Daphnia magna acute 48-hour survival test
Protocol: FIG. 22 depicts a Daphnia magna 48-hour (acute) toxicity test.
This mirrors OECD 202, Daphnia sp. Reproduction Test. […] Daphnia were cultured in a beaker (500 mL) using 16:8 h day:night cycle at 20±2° C. under the diffused cool LED lighting.

[2] = test system: Pseudokirchneriella subcapitata; assay: Green alga cell growth (cell count); type: cell-based
Protocol: (§1) Control group (panel A) received only growth medium (100 mL). Each treatment received 1.2×10^6 cells/mL on day-0 and were allowed to grow until day-28 when the experiments were halted. Cell count was recorded on day-7 (acute), day-14 and day-28 (chronic).
(§2) 1.a. […] Experiments were repeated twice for NoPest-Ag5, Ag+ ions and control groups, and data were combined. Algae were cultured in an Erlenmeyer flask with 100 mL growth media using a16:8 h day:night cycle at 25±2° C. under the LED lighting of 4830 lux. Microscopic analysis coupled with hemocytometer was used to measure cell growth, and total chlorophyll (chlorophyll [a+b]) was used to measure primary productivity, in algae.

[3] = test system: honeybee, Apis mellifera L.; assay: Honeybee 48-hour oral exposure test (OECD 213); type: in vivo; conditions: for 48-hour Mortality: per replicate of 10 bees; for Consumption after 6 hours: Consumed: per replicate, 200 μL provided
Protocol: (§3) Pollinators, especially honeybees, are susceptible to certain insecticides. Understanding the susceptibility of honeybees will determine the test substance's safe use in the environment as well as when the product should be used in relation to honeybee activity.
Honeybee 48-hour Oral Exposure Test: Oral exposure followed OECD Test 213 method. […] The test included nominal test item doses ranging from 1 to 400 ng a.i./bee (ppt a.i./bee) and a concurrent negative control group. Additional groups of bees from the same source were dosed with imidacloprid, at 0.0013, 0.0032 and 0.008 μg a.i./bee (ppb a.i./bee) as a positive control substance, also conducted concurrently. Three replicate test chambers were maintained in each control and treatment group, with 10 bees in each test chamber. Observations of mortality and other signs of toxicity were made for approximately 48 hours after dosing. Cumulative mortality observed in the test groups was used to determine the LD50 (lethal dose that kills 50% of the test populations).

[4] = test system: Daphnia magna; assay: Daphnia magna chronic 21-day reproduction test; type: in vivo
Excerpt: FIG. 23 depicts a Daphnia magna 21-day (chronic) reproduction test.
This mirrors OECD 202, Daphnia sp. Reproduction Test.

[5] = test system: honeybee, Apis mellifera L.; assay: Honeybee 48-hour contact (dermal) exposure test (OECD 214); type: in vivo; conditions: 0.008 μg a.i./bee [4 mg a.i./L], per replicate of 10 bees, listed as Positive Control
[6] = test system: honeybee, Apis mellifera L.; assay: as above; type: in vivo; conditions: for 48-hour Mortality: per replicate of 10 bees, listed as Positive Control
Protocol: as §3
Honeybee 48-hour Contact (Dermal) Exposure Test Contact exposure followed OECD Test 214 method. Young adult worker honeybees were exposed to six test doses ranging from 0.1 to 40 ng a.i./bee administered topically to the dorsal side of the thorax of each bee in a 2 μL droplet of water containing 1% Tween 80 surfactant. A negative control group and a surfactant control group were maintained concurrently. Additional groups of bees from the same source were nominally dosed with imidacloprid, at 0.032, 0.08 and 0.2 μg a.i./bee as a positive control substance. The positive control test was conducted concurrently with the definitive test and the bees were administered topically to the dorsal side of the thorax of each bee in a 2.0 μL droplet with water containing […] surfactant. Three replicate test chambers were maintained in each control and treatment group, with 10 bees in each test chamber. Observations of mortality and other signs of toxicity were made for approximately 48 hours after dosing. Cumulative mortality observed in the test groups was used to determine the LD50.

[7] = test system: Pseudokirchneriella subcapitata; assay: Green alga total chlorophyll (a+b) analysis; type: cell-based
Protocol: as §1, with “mL). Chlorophylls (a and b) were extracted using a 95% ethanol method and measured using an UV-Vis spectrophotometer (Hach DR6000).” for “mL).”, “Chlorophylls were” for “Cell count was”
as §2
1.b. Chlorophyll analysis: Chlorophylls (a and b) were extracted using 95% ethanol method, measured using UV-Vis spectrophotometer (Hach DR6000), and reported as total chlorophyll (a+b).

[8] = test system: soybean seed; assay: Soybean seed germination; conditions: 0.25-50 mg/L, 7 days
[9] = test system: Soybean seeds; assay: Soybean seedling biomass; type: in vivo, Glycine max; conditions: 0.2-50 mg/L, day-7
Excerpt: FIG. 13 depicts the effect of exposure to NH2—AgNPs on soybean seedling biomass.

[10] = test system: E. coli DH5α; assay: Surface interaction with bacterial cells (imaging); type: cell-based, Escherichia coli; conditions: 10 mg/L (as total Ag), 72 h
Protocol: (§4) FIG. 8 depicts the antimicrobial effects of positively charged NH2—AgNPs compared with carboxylate/citrate AgNPs (cit-AgNPs) and Ag^+ ions on E. coli DH5α and K12 growth (panel A), and the effects of the surface interaction of 10 mg/L (equivalent to 10 ppm) NH2—AgNPs compared with the effects of the surface interaction of Cit-AgNPs and Ag^+ ions on E. coli DH5α (panel B).

[11] = test system: Corn (Zea mays) seeds; assay: Corn seed germination; conditions: 0.25-50 mg/L, 7 days
[12] = test system: E. coli K12; assay: Antimicrobial growth curves; type: cell-based, Escherichia coli; conditions: 10 ppm
Protocol: as §4

[13] = test system: E. coli DH5α; assay: Antimicrobial growth curves; type: cell-based, Escherichia coli; conditions: 10 ppm
Protocol: as §4

[14] = 0.0013 μg a.i./bee [0.0065 mg a.i./L]
[15] = 0.0032 μg a.i./bee [0.016 mg a.i./L]
[16] = 0.0032 μg a.i./bee [0.016 mg a.i./L], listed as Positive Control
[17] = 0.008 μg a.i./bee [0.04 mg a.i./L]
[18] = 0.008 μg a.i./bee [0.04 mg a.i./L], listed as Positive Control
[19] = 0.032 μg a.i./bee [16 mg a.i./L]
[20] = 0.2 μg a.i./bee [100 mg a.i./L]

SMILES: [Cu+2] [Cu^2+ ions]
- Mean survival ([1]; 0.5 mg/L): 0%

SMILES: O=[N+]([O-])NC1=NCCN1Cc1ccc(Cl)nc1 [Imidacloprid]
- Mean survival ([1]; all concentrations tested): 66.6-86.6%
- Comparative toxicity of all four test compounds (cell count) [2]: least toxic
- Algal toxicity based on cell count ([2]; all concentrations tested): generally non-toxic, except at a high concentration of 100 mg/L
- Cell growth ([2]; by day-28): concentration-dependent inhibition above 1 mg/L
- 48-hour Mortality Mean [3, 14]: 0%
- Consumption after 6 hours: Consumed, Mean [3, 14]: 198 µL
- 48-hour Mortality [3, 14]: 0%
- Consumption after 6 hours: Consumed ([3]; 0.0013 μg a.i./bee [0.0065 mg a.i./L], listed as Positive Control): 200 μL (2×) and 195 μL
- 48-hour Mortality Mean [3, 15]: 3%
- Consumption after 6 hours: Consumed, Mean [3, 15]: 163 µL
- 48-hour Mortality [3, 16]: 0% (2×) and 10%
- Consumption after 6 hours: Consumed [3, 16]: 140 µL and 150 µL and 200 µL
- 48-hour Mortality Mean [3, 17]: 7%
- Consumption after 6 hours: Consumed, Mean [3, 17]: 88 µL
- 48-hour Mortality [3, 18]: 0% (2×) and 20%
- Consumption after 6 hours: Consumed [3, 18]: 85 µL and 110 µL and 70 µL
- Average survival ([3]; 48-hr, 0.0013-0.008 μg a.i./bee): 93%-97%
- Appearance of surviving bees at test termination ([3]; 48 hours): appeared normal
- Mean consumption per replicate ([3]; positive control groups): 88 to 198 µL
- Reproduction compared with control [4]: not significantly different from control
- 48-hour Mortality [5]: 0% and 20% and 10%
- 48-hour Mortality Mean ([6]; 0.008 μg a.i./bee [4 mg a.i./L]): 10%
- 48-hour Mortality Mean [6, 19]: 33%
- 48-hour Mortality [6, 19]: 40% and 10% and 50%
- 48-hour Mortality Mean [6, 20]: 77%
- 48-hour Mortality [6, 20]: 70% and 100% and 60%
- Surviving bees that appeared lethargic ([6]; 24 lethargic out of 54 surviving bees): 46.3%
- LD50 ([6]; 48-hour): 0.11 μg a.i./bee
- Average mortality ([6]; 48-hr, positive control doses, n=30 bees per concentration): 10%-77%
- Comparative toxicity of all four test compounds (chlorophyll) [7]: least toxic
- Toxicity by total chlorophyll [7]: generally non-toxic

SMILES: [Ag+] [Ag^+ ions]
- Comparative toxicity of all four test compounds (cell count) [2]: most toxic
- Algal growth compared to control (cell count) ([2]; at or above 1 mg/L): inhibited algal growth
- Toxicity in germination of soybean [8]: non-toxic
- Seedling biomass compared to control (water only) [9]: promoted seedling biomass
- Cell integrity after surface interaction [10]: intact cells were observed, but with a shape change to a hexagonal honeycomb like phenotype lacking adherent fimbriae
- Mean decrease in reproduction ([4]; 0.01 mg/L): 6.6%
- Mean increase in reproduction ([4]; concentrations except 0.01 mg/L): 126.6-1120%
- Toxicity in germination of corn [11]: non-toxic
- Nature of effect based on growth curves [12]: bacteriostatic effects
- Nature of effect based on growth curves [13]: bacteriostatic effects
- Toxicity by total chlorophyll ([7]; 10 mg/L): less toxic compared to NoPest-Ag5

SMILES: [Cd+2] [Cd^2+ ions]
- Algal growth compared to control (cell count) ([2]; 0.5 mg/L): stimulatory
- Algal toxicity (cell count) ([2]; at or above 0.75 mg/L): toxicity of Cd^2+ ions increased
- Chlorophyll synthesis ([7]; 0.05-0.75 mg/L): chlorophyll synthesis did occur
- Chlorophyll synthesis compared to control ([7]; at or above 1 mg/L): inhibited chlorophyll synthesis
